Experimental data as given in patent publication US20140309295A1, “ANTIEPILEPTIC, HYPOCHOLESTEROLEMIC AND NEUROPROTECTIVE COMPOUND” (NEURON BIOPHARMA, S.A., priority 2009, published 2014).

Experiments:
[1] = tested on: CD1 mice inoculated with MPTP (subchronic); assay: Subchronic MPTP model of Parkinson's disease in mice; type: in vivo
Experimental: All the animals included for the experimental process were 12-week old males of the CD1 strain. The experiments were conducted strictly following the Guidance on the Operation of Animals (Scientific Procedures, Act. 1986). The animals had their respective quarantine period and were treated with maximum precaution to minimize possible contaminations during inoculations and handling.
Twenty animals were used in this assay and the treatments were all conducted by intraperitoneal (i.p.) route with a volume of 100 μl, according to the following regimens: • i) PBS+MPTP+PBS regimen: 10 animals were initially treated with a daily dose for 2 days of PBS, from the second day onwards the animals were inoculated with 1 daily dose of MPTP at 30 mg/Kg for 5 days, at intervals of 2 hours by i.p. route. For the next 21 days they were administered 3 weekly doses of PBS. • ii) NST0037+MPTP+NST0037 regimen: 10 animals were initially treated with a daily dose for 2 days of NST0037 at 50 mg/kg, from the second day onwards the animals were inoculated with 1 daily dose of MPTP at 30 mg/Kg for 5 days, at intervals of 2 hours by i.p. route. For the next 21 days they were administered 3 weekly doses of NST0037 at 50 mg/kg.
Seven days before starting the treatments and at 7, 14 and 21 days post-inoculation of MPTP, the animals were subjected to a locomotor resistance test referred to as the Rotarod test for 2 minutes, recording the time the animals resisted walking over a cylinder which increased its speed from 4 to 40 r.p.m.
Once the treatment time of 21 days ended, the animals were sacrificed and the brains were dissected. The brain samples were processed and included in paraffin. For the analysis of the presence of dopaminergic neurons in the substantia nigra, the immunohistochemistry against the tyrosine-hydroxylase (TH) protein was performed in 5 μm thick sagittal sections.
Once the treatment time of 21 days ended, the animals were sacrificed and the brains were dissected. The brain samples were processed and included in paraffin. […]

[2] = tested on: human neuroblastoma SK-N-MC cells; assay: Protection against neuronal death induced by endoplasmic reticulum stress (tunicamycin), WST-1; type: cell-based; details: 40 μM NST0037; 24 μM tunicamycin
Experimental: The assay was performed on human neuroblastoma SK-N-MC cells in culture from the American Type Culture Collection (ATCC), in all cases strict rules of sterility were followed and the manipulation was performed in class II biological safety cabinets following European standard EN 12469. The cells were maintained in the following culture medium: Minimum Essential Medium Eagle (MEM) supplemented with 1 mM sodium pyruvate, 2 mM L-glutamine, 0.1 mM non-essential amino acids, 0.05 mg/ml gentamicin and 10% fetal bovine serum.
The inhibition caused by compound NST0037 of cell death caused by treatment with tunicamycin generating reticular stress was analyzed. Tunicamycin is an inhibitor of protein N-glycosylation, causing abnormal protein folding in the endoplasmic reticulum, therefore said proteins are accumulated and cause stress, resulting in cell death. These cells, not exceeding 15 passages, were seeded on 96-well plates treated for adherent cells with a cell concentration of 5×10^4 cells/well; 3 wells of the plate were seeded for each condition of the assay. […]
The cells were incubated (at 37° C. and 5% CO2) with these treatments for 22 hours, after which time WST-1 reagent (Roche) was added. […] The formazan that is formed can be detected colorimetrically since it has an absorbance of 440 nm. The reading was taken in a plate reader at 440 nm 2 hours after adding the reagent.

[3] = PAMPA, 18 h, 100 μM, pH 7.4
zebrafish larvae = assay: Acute toxicity assay in zebrafish larvae (24 hours); type: in vivo, Danio rerio; details: for Mortality (dead larvae/total): 1 day
Experimental: To evaluate the biosafety of compound NST0037, its toxicological effects on the zebrafish larvae model were analyzed by means of determining the safety parameters of the OECD C15 protocol.
The fertilized eggs were obtained by natural mating of the zebrafish (Danio rerio, AB strain). A total of 8-10 pairs were used for each cross and a total of 200-250 eggs were generated on average per pair. The eggs were collected immediately after spawning and were washed with dilution water (CaCl2.2H2O2 0.29 g/L, MgSO4.7H2O2 0.12 g/L, NaHCO3 0.065 g/L, KCl 0.006 g/L), the pH being adjusted to 7.8±0.2, in accordance with EC Regulation 440/2008, method C.1, and were deposited in a Petri dish.
The embryos were developed normally until 96 hours post-fertilization in their growth medium. […] […]. Each experiment was performed in triplicate.
The studies were conducted for 24 hours of treatment, thus performing an acute toxicity assay. […].
After the time of exposure of the substances under study, the record of the mortality of the larvae was determined. […].
[…]. The percentage of healthy larvae was defined as the number of live larvae without symptoms of external physiopathological anomalies (morphological and/or behavioral), the latter being a parameter determining the biosafety of a substance under study and is complementary to the survival rates and to LD50. […].
The anomalies recorded in the study are described below: • Thrombosis in the yolk sac: it is a clot inside a blood vessel, in this case of any vessel irrigating the yolk. • Cardiac thrombosis: occurs in a cardiac vessel. • Cardiac edema (or hydrops): accumulation of fluid in the intercellular tissue space and also in the cavities of the organism. In the case of the heart, it causes the accumulation of fluid in the pericardial sac.

Q: With `CCC(CC)C(=O)O[C@H]1C[C@@H](C)C=C2C=C[C@H](C)[C@H](CC[C@@H]3C[C@@H](O)CC(=O)O3)[C@H]21` [NST0037, (1S,2S,6R,8S,8aR)-1,2,6,7,8,8a-hexahydro-3,7-dimethyl-8-[2-[(2R,4R)-tetrahydro-4-hydroxy-6-oxo-2H-pyran-2-yl]ethyl]-1-naphthalenyl-2-ethyl-butyrate] as the compound, how does the “motor resistance (Rotarod test)” value ([1]; NST0037+MPTP+NST0037, 50 mg/kg i.p., MPTP 30 mg/Kg daily 5 days, up to 21 days) read?
A: Its value is “prevents the motor deterioration of the animals”.

Q: What about the “dopaminergic neurons (tyrosine-hydroxylase) in substantia nigra” value ([1]; NST0037+MPTP+NST0037, 21 days) of the same compound?
A: Its value is “larger number of TH-positive cells”.

Q: And the “lipid peroxidation (HNE) in neurons of substantia nigra” value ([1]; NST0037+MPTP+NST0037, 21 days)?
A: Its value is “modest number of isolated neurons with HNE-positive labeling”.

Q: And the “protection against death caused by Tm” value [2]?
A: The value was 55%.

Q: What about the “% BBB Passage” value [3] of the same compound?
A: Its value is 22.5 ± 5.5%.

Q: And the “Mortality (dead larvae/total)” value (zebrafish larvae; Dose 10 mg/Kg)?
A: The value was 0/30.

Q: And the “Mortality (dead larvae/total)” value (zebrafish larvae; Dose 30 mg/Kg)?
A: The value was 0/30.

Q: And the “Mortality (dead larvae/total)” value (zebrafish larvae; Dose 100 mg/Kg)?
A: Its value is 0/30.

Q: And the “Mortality (dead larvae/total)” value (zebrafish larvae; Dose 300 mg/Kg)?
A: Its value is 0/30.

Q: What about the “Mortality (dead larvae/total)” value (zebrafish larvae; Dose 1000 mg/Kg) of the same compound?
A: The value was 0/30.

Q: What about the “percentage of healthy larvae” value (zebrafish larvae; highest study dose (1000 mg/Kg), 24 hours) of the same compound?
A: The value was 67.9±3.3%.
